Values joined by “and” are separate entries in the source; they are usually repeats but may differ in a detail not shown here. Identical values can stand only once. Like-named read-outs stand apart in the source and are kept apart here.
Legend:
[1] = Protein binding assay (equilibrium dialysis); assay type: in vitro ADME, rat; details: rat plasma; equilibrium dialysis 24 h, 37 °C; 2 μmol/L alkaloids, 4 μmol/L saponins; read-out: fu-plasma (unbound fraction)
Method: Binding of circulating alkaloids and saponins to rat plasma was measured by equilibrium dialysis using Spectra/Por 2 dialysis membranes (molecular weight cutoff, 12–14 kDa; Rancho Dominguez, CA, USA) as described. After equilibrating for 24 h at 55 rpm and 37 °C, the dialysate and the plasma were sampled for analysis. […] The concentrations of tested matrine, oxysophocarpine and oxymatrine were 2 μmol/L, while those of astragaloside IV, III, and ginsenosides Rh1, Rg2, Rg1, Rf, Re, Rd, Rc, Rb1, Rb2, notoginsenosides R1, R2, were 4 μmol/L. The unbound fraction (fu-plasma) in rat plasma was calculated as follow: fu-plasma = Cd/Cp × 100%, where the Cd and Cp values were the concentrations of each analyte in the dialysate sample and in the post-dialysis plasma sample, respectively.

[2] = Plasma pharmacokinetics in rats after a 30-min intravenous infusion of Kang-Ai injection; assay type: in vivo, Sprague–Dawley rats; details: male, Sprague-Dawley, in vivo; for Cmax: read-out: Cmax; for half-life: read-out: t1/2 (converted); for clearance: read-out: CLtot, p (converted)
Method: Specific pathogen free (SPF) grade male Sprague–Dawley rats (250 ± 20) g were provided by the Experimental Animal Center of Zhengzhou University (Zhengzhou, China). These rats were kept in a designated animal room at constant temperature (22 ± 2) °C and humidity (50 ± 20) % with 12 h of light/dark per day and free access to water and food. All protocols of animal experiments were approved in accordance with the Regulations of Experimental Animal Administration issued by the Ethics Review Committee for Animal Experimentation of Jinan University (Ethical Review NO. 20190301010). Prior to the experiments, the rats were fasted for 12 h but with free access to water. After study use, the rats were euthanized with CO2 gas.
The rats in this study all received a single 30-min intravenous infusion of Kang-Ai injection via the tail veins using TYD01-02 infusion pumps (Lead Fluid, Baoding, China). The dose was derived from the label daily dose of Kang-Ai injection (60 mL/person, once daily) according to dose normalization by body surface area. For plasma pharmacokinetic studies, the rats were randomly received a single intravenous 30 min-bolus dose at 6 mL/kg. Blood samples (100 μL) were collected from the rats’ external jugular veins into heparinized polypropylene tubes at 5, 15, 30, 45 min, and 1, 1.5, 2, 3, 4, 6, 8, 12 h. After gently shaking for 10 s, the blood samples were centrifuged at 13000 g for 10 min to yield plasma samples, which were kept frozen at − 80 °C until analysis.
Pharmacokinetic parameters were estimated by non-compartmental analysis using WinNonlin 6.3 software (Pharsight, NC, US). Data are presented as the mean ± SD (n = 3). The area under the concentration–time curve up to the last measured point in time (AUC0-t) was calculated using the trapezoidal rule. The total plasma clearance (CLtot, p) was calculated by dividing the compound dose by the AUC0-∞, and the distribution volume at steady state (VSS) was estimated by multiplying the CLtot, p by the mean residence time (MRT). The renal excretory clearance (CLR) and hepatobiliary (CLB) was determined by dividing the cumulative amount excreted into urine (Cum.Ae-U) and bile (Cum.Ae-B) by the plasma AUC0-∞, respectively. The fractions of dose excreted into urine (fe-U) and the fractions of dose excreted into bile (fe-B) were established using the relationship Cum.Ae-U/Dose and Cum.Ae-B/Dose, respectively. Mean differences between treatment and control groups were analyzed by two-tailed unpaired Student’s t test by Graphpad Prism V5 software (SanDiego, CA). The level of significance was set at p < 0.05 (∗), p < 0.01 (∗∗) or p < 0.001 (∗∗∗).

[3] = Stability tests of analytes in rat plasma QC samples; assay type: in vitro ADME; details: rat plasma
Method: […] The dilution integrity was investigated by analyzing six replicate samples with each analyte, and each analyte were diluted 10-fold with blank rat matrix. Furthermore, the diluted samples were analyzed using freshly prepared calibration curve to calculate RE and RSD, which should be no more than ± 15% as criterion.

[4] = Biliary (hepatobiliary) excretion in rats after a 30-min infusion of Kang-Ai injection; assay type: in vivo, Sprague–Dawley rats; details: rat bile 0–12 h; Kang-Ai injection 6 mL/kg iv
Method in brief: (§1)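 Urine collected in metabolic cages at 0–4, 4–8, 8–12 h and bile at 0–3, 3–6, 6–9, 9–12 h after infusion start, weighed and frozen at −80 °C. Non-compartmental analysis; CLR and CLB as cumulative urinary or biliary amount divided by plasma AUC0-∞, fe-U and fe-B as cumulative amount/dose; mean ± SD (n = 3).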

[5] = Urinary (renal) excretion in rats after a 30-min infusion of Kang-Ai injection; assay type: in vivo, Sprague–Dawley rats; details: Kang-Ai injection 6 mL/kg iv; for CL renal: male, Sprague-Dawley, in vivo, rat, read-out: CLR (renal excretory clearance) (converted); for fe-U,0–12h (fraction of dose excreted into urine): rat urine 0–12 h
Method in brief: as §1

[6] = rat plasma, 30-min iv infusion of Kang-Ai injection 6 mL/kg
[7] = rat, 30-min iv infusion of Kang-Ai injection 6 mL/kg, Table 1 unit
[8] = rat, 30-min iv infusion of Kang-Ai injection 6 mL/kg, Table 1 unit, read-out: VSS

Row | Compound | fraction unbound at 24 h [1] | Cmax [2, 6] | half-life [2, 6] | clearance [2, 7] | Vd [2, 8] | At -80 °C for 48 h, Mean±SD ([3]; nominal conc. 20 nM) | At -80 °C for 48 h, RE ([3]; nominal conc. 20 nM) | Extracted samples at 8 °C for 18 h, Mean±SD ([3]; nominal conc. 20 nM) | Extracted samples at 8 °C for 18 h, RE ([3]; nominal conc. 20 nM) | Short-term stability at room temperature for 6 h, Mean±SD ([3]; nominal conc. 20 nM) | Short-term stability at room temperature for 6 h, RE ([3]; nominal conc. 20 nM) | Three freeze-thaw cycles (-80 °C ↔ 23 °C), Mean±SD ([3]; nominal conc. 20 nM) | Three freeze-thaw cycles (-80 °C ↔ 23 °C), RE ([3]; nominal conc. 20 nM) | At -80 °C for 48 h, Mean±SD ([3]; nominal conc. 100 nM) | At -80 °C for 48 h, RE ([3]; nominal conc. 100 nM) | Extracted samples at 8 °C for 18 h, Mean±SD ([3]; nominal conc. 100 nM) | Extracted samples at 8 °C for 18 h, RE ([3]; nominal conc. 100 nM) | Short-term stability at room temperature for 6 h, Mean±SD ([3]; nominal conc. 100 nM) | Short-term stability at room temperature for 6 h, RE ([3]; nominal conc. 100 nM) | Three freeze-thaw cycles (-80 °C ↔ 23 °C), Mean±SD ([3]; nominal conc. 100 nM) | other results
1 | CC(C)=CCC[C@](C)(O)[C@H]1CC[C@]2(C)[C@@H]1[C@H](O)C[C@@H]1[C@@]3(C)CC[C@H](O)C(C)(C)[C@@H]3[C@@H](O[C@@H]3O[C@H](CO)[C@@H](O)[C@H](O)[C@H]3O)C[C@]12C [Compound C1, Ginsenoside Rh1] | 0.463 ± 0.0503 | 140 ± 20.4 nM | 0.44 ± 0.39 h | 3.31 mL/min | 0.0936 ± 0.0456 L | 22.38 ± 0.33 nM | 13.76% | 20.79 ± 2.88 nM | -12.72% | 20.81 ± 2.57 nM | 13.31% | 20.14 ± 2.50 nM | -13.10% | 88.26 ± 1.17 nM | -13.03% | 100.20 ± 11.08 nM | 12.81% | 92.25 ± 8.56 nM | -13.70% | 99.91 ± 9.81 nM | AUC(0-t) ([2]; rat, iv, rat plasma, 30-min iv infusion of Kang-Ai injection 6 mL/kg, read-out: AUC0–12h): 0.0912 ± 0.00477 µM·h; Three freeze-thaw cycles (-80 °C ↔ 23 °C), RE ([3]; nominal conc. 100 nM): -10.86%; At -80 °C for 48 h, Mean±SD ([3]; nominal conc. 400 nM): 379.88 ± 25.01 nM; At -80 °C for 48 h, RE ([3]; nominal conc. 400 nM): -9.26%; Extracted samples at 8 °C for 18 h, Mean±SD ([3]; nominal conc. 400 nM): 424.42 ± 36.39 nM; Extracted samples at 8 °C for 18 h, RE ([3]; nominal conc. 400 nM): 12.32%; Short-term stability at room temperature for 6 h, Mean±SD ([3]; nominal conc. 400 nM): 376.44 ± 26.61 nM; Short-term stability at room temperature for 6 h, RE ([3]; nominal conc. 400 nM): -12.62%; Three freeze-thaw cycles (-80 °C ↔ 23 °C), Mean±SD ([3]; nominal conc. 400 nM): 370.01 ± 38.18 nM; Three freeze-thaw cycles (-80 °C ↔ 23 °C), RE ([3]; nominal conc. 400 nM): -13.77%; fe-B,0–12h (fraction of dose excreted into bile) [4]: 9.71 ± 0.98%; CL renal [5]: 0.316 mL/min; fe-U,0–12h (fraction of dose excreted into urine) [5]: 9.59 ± 1.68%
2 | O=C1C=CC[C@@H]2[C@H]3CCC[N+]4([O-])CCC[C@@H](CN12)[C@@H]34 (some centres unmarked) [Compound A2, Oxysophocarpine] | 0.912 ± 0.0495 | 170 ± 27.4 nM | 1.78 ± 1.55 h | 0.205 mL/min | 0.0252 ± 0.0148 L | 21.90 ± 0.32 nM | 10.73% | 22.58 ± 0.11 nM | 13.22% | 20.94 ± 1.33 nM | 12.22% | 22.63 ± 0.15 nM | 13.81% | 112.64 ± 0.85 nM | 13.54% | 108.59 ± 6.59 nM | 14.25% | 103.12 ± 8.16 nM | 12.17% | 103.40 ± 9.41 nM | clearance ([2]; rat, Kang-Ai injection 6 mL/kg iv): 0.205 mL/min/kg; Vd ([2]; rat, Kang-Ai injection 6 mL/kg iv, read-out: VSS (Vd)): 0.0252 L/kg; Three freeze-thaw cycles (-80 °C ↔ 23 °C), RE ([3]; nominal conc. 100 nM): 12.06%; At -80 °C for 48 h, Mean±SD ([3]; nominal conc. 400 nM): 437.15 ± 14.08 nM; At -80 °C for 48 h, RE ([3]; nominal conc. 400 nM): 11.61%; Extracted samples at 8 °C for 18 h, Mean±SD ([3]; nominal conc. 400 nM): 432.22 ± 7.29 nM; Extracted samples at 8 °C for 18 h, RE ([3]; nominal conc. 400 nM): 9.98%; Short-term stability at room temperature for 6 h, Mean±SD ([3]; nominal conc. 400 nM): 439.31 ± 14.14 nM; Short-term stability at room temperature for 6 h, RE ([3]; nominal conc. 400 nM): 12.94%; Three freeze-thaw cycles (-80 °C ↔ 23 °C), Mean±SD ([3]; nominal conc. 400 nM): 418.53 ± 37.48 nM; Three freeze-thaw cycles (-80 °C ↔ 23 °C), RE ([3]; nominal conc. 400 nM): 14.91%; fe-B,0–12h (fraction of dose excreted into bile) [4]: 51.92% and 51.92 ± 8.98%; CL renal [5]: 0.0792 mL/min; fe-U,0–12h (fraction of dose excreted into urine) [5]: 38.60% and 38.60 ± 11.22%; fraction of dose excreted unchanged via renal plus hepatobiliary excretion (sum of fe-U and fe-B) ([5]; rat urine + bile, 0–12 h): exceeded 90%
